How the values were obtained:
[1] = wn = mass fraction of the nth substance listed; conditions: 298.15 K, 101 kPa, Liquid; for viscosity: Capillary tube (Ostwald / Ubbelohde) method; for speed of sound: Sing-around technique in a fixed-path interferometer; for mass density: Vibrating tube method
[2] = refractive index (Na D-line) (dimensionless); wn = mass fraction of the nth substance listed; conditions: 298.15 K, 101 kPa, Liquid, Standard Abbe refractometry

O=[N+]([O-])[O-].O=[N+]([O-])[O-].[Ba+2] [barium dinitrate] + O
Conditions | mass density, [1] [kg/m3] | refractive index, [2] | speed of sound, [1] [m/s] | viscosity, [1] [mPa·s]
w1 = 0.01 | 997.37 | 1.3327 | 1512.7 | 0.904
w1 = 0.03 | 998.48 | 1.3334 | 1516.4 | 0.91
w1 = 0.05 | 999.56 | 1.3342 | 1519.3 | 0.916

— the NIST ThermoML archive (doi:10.1016/j.tca.2013.06.017)
